# Experimental data: article PMC11984392, “EphA2-targeted alpha-particle theranostics for enhancing PDAC treatment” (Theranostics, 2025)
# Read-outs that look alike come from different tables or passages of the source. *1 amine or outer side, *2 acyl side, *3 side chain or, on linkers, in order; H or OH if unused. Where a SMILES comes first, the peptide text is derived from it. Bridges are numbered along the chain shown (N, C = ends). [ ]: non-standard residue; d: D form. The star is where a group is joined. TATA = O=C(CC[*:1])N1CN(C(=O)CC[*:2])CN(C(=O)CC[*:3])C1; NOTA = O=C(O)CN1CCN(CC(=O)O)CCN(CC(=O)*)CC1; Hyp = O=C(O)[C@@H]1C[C@@H](O)CN1; hArg = N=C(N)NCCCC[C@H](N)C(=O)O; PEG2 = NCCOCCOCCC(=O)O; Sar = CNCC(=O)O
# Columns and labels:
# [1] = Ex vivo biodistribution; assay type: in vivo, mice; conditions: mouse, in vivo, total radioactivity, KPC syngeneic tumor, 60 min p.i., mean ± SEM (n = 5)
# Method: (§1) Mice with 100-200 mm^3 tumor volume were used for ex vivo biodistribution studies. For radiotracer pharmacokinetics and dosimetry studies, mice with Panc1 tumor xenograft received ~80 µCi (2.96 MBq) [^68Ga]AJ201 and were sacrificed at pre-determined time points (5, 30, 60, 90 and 120 min). All other mice were injected with ~50 µCi (1.85 MBq; 0.2 to 0.5 nmol) Ga-68 labeled radiotracer and were sacrificed at 60 min. The selected tissues were collected, weighed, counted, and their %ID/g values calculated for biodistribution analysis. For pharmacokinetics and dosimetry studies, selected tissues included blood, muscle, tumor, thymus, heart, lung, liver, pancreas, stomach, small intestine, large intestine, spleen, adrenals, kidney, bladder, femur, brain and tumor xenografts. For other studies, selected tissues were blood, muscle, tumor, heart, lung, liver, pancreas, small intestine, spleen, kidney.
# [2] = tested on: KPC syngeneic tumor; assay: Ex vivo biodistribution; assay type: in vivo, mice; conditions: KPC syngeneic tumor; 60 min p.i.; mean ± SEM (n = 5)
# Method: as §1
# [3] = In vitro stability of radiotracers in human serum; assay type: in vitro ADME; conditions: radio-RP-HPLC after ultrafiltration (10 kDa)
# Method: The stability of the radiotracers was assessed in saline and human serum at 37 °C to mimic physiological conditions. Approximately 1.5 mCi of the radiotracer, prepared in 100-150 µL of saline, was added to 0.5 mL of either saline or human serum in separate microcentrifuge tubes. The mixtures were gently vortexed and then incubated at 37 °C in an incubator. At predetermined time-points (1, 2, and 3 h), 100 µL aliquots were collected from the incubation mixtures for analysis. For serum samples, proteins were removed by adding 100 µL of saline and 50 µL of ethanol, followed by ultrafiltration using 10 kDa centrifugal filters made of regenerative cellulose membranes. The filtration process was performed by centrifugation at 14,000 rpm for 10 min and repeated once more to ensure complete protein removal. The filtrate was collected for analysis. The radiochemical integrity of the radiotracer in both saline and serum was evaluated using radio-RP-HPLC.
# [4] = PET tumor uptake (SUV) of [68Ga]AJ201; assay type: in vivo; conditions: total radioactivity
# [5] = tested on: Jurkat cells; assay: In vitro binding assay with Ga-68 radiotracer; assay type: cell-based, human; conditions: Jurkat (negative control cells); 1 µCi, 60 min, 4 °C; mean ± SD (n = 3-4)
# Method: (§2) In vitro binding assays were performed to determine the binding of [^68Ga]AJ201 and [^68Ga]AJ210 to Jurkat and PDAC cell lines. Approximately 1 μCi of radiotracer was incubated with cells in 100 μL culture media for 60 min at 4 °C. After incubation, cells were washed three times with ice cold PBS and counted on an automated gamma counter (1282 Compugamma CS, Pharmacia/LKBNuclear, Inc., Gaithersburg, MD). […] For kinetic study, 8×10^6 Panc1 cells/vial were incubated with approximately 8 μCi/vial of [^68Ga]AJ201 in culture media in triplicates at 37 °C and 4 °C in separate tubes. 1×10^6 cells were aliquoted at predetermined timepoints (5, 15, 30, 60 min). Excess radioactivity was removed by washing three times with PBS. Activity in cell pellets were measured on an automated gamma counter.
# [6] = tested on: Panc1005 cells; assay: In vitro binding assay with Ga-68 radiotracer; assay type: cell-based, human; conditions: 1 µCi, 60 min, 4 °C, mean ± SD (n = 3-4)
# Method: as §2
# [7] = tested on: Hs766T cells; assay: In vitro binding assay with Ga-68 radiotracer; assay type: cell-based, human; conditions: 1 µCi, 60 min, 4 °C, mean ± SD (n = 3-4)
# Method: as §2
# [8] = tested on: BxPC3 cells; assay: In vitro binding assay with Ga-68 radiotracer; assay type: cell-based, human; conditions: 1 µCi, 60 min, 4 °C, mean ± SD (n = 3-4)
# Method: as §2
# [9] = tested on: AsPC1 cells; assay: In vitro binding assay with Ga-68 radiotracer; assay type: cell-based, human; conditions: 1 µCi, 60 min, 4 °C, mean ± SD (n = 3-4)
# Method: as §2
# [10] = tested on: Su8686 cells; assay: In vitro binding assay with Ga-68 radiotracer; assay type: cell-based, human; conditions: 1 µCi, 60 min, 4 °C, mean ± SD (n = 3-4)
# Method: as §2
# [11] = tested on: Panc1 cells; assay: In vitro binding assay with Ga-68 radiotracer; assay type: cell-based, human
# Method: as §2
# [12] = tested on: CFPAC cells; assay: In vitro binding assay with Ga-68 radiotracer; assay type: cell-based, human; conditions: 1 µCi, 60 min, 4 °C, mean ± SD (n = 3-4)
# Method: as §2
# [13] = Human radiation dosimetry estimates (MIRDCalc)
# Excerpt: Pharmacokinetic data obtained from biodistribution studies of Panc1 tumor-bearing mice were utilized to predict the time-integrated activity coefficients (TIACs, formerly known as residence times) of [^68Ga]AJ201 in humans, as previously described [28]-[30]. These TIAC estimates were then input into MIRDCalc to determine the absorbed dose coefficients for organs from ^68Ga using the ICRP adult female reference phantom (Table S4).
# [14] = absorbed dose coefficient, MIRDCalc, ICRP adult female reference phantom
# [15] = absorbed dose coefficient, MIRDCalc, ICRP adult female reference phantom, listed as [68Ga]AJ201
# [16] = predicted for humans from Panc1 mouse biodistribution
compound,measurement,setting,value
"CC(C)C[C@@H]1NC(=O)[C@@H]2CSCCC(=O)N3CN(CN(C3)C(=O)CCSC[C@H](NC(=O)[C@H](CC(=O)O)NC(=O)[C@H](CCCCNC(=N)N)NC(=O)[C@H](C)NC(=O)CNC(=O)CN(C)C(=O)CN(C)C(=O)CN(C)C(=O)[C@H](CCCNC(=N)N)NC(=O)CNC(=O)CCOCCOCCNC(=O)CN3CCN(CC(=O)O)CCN(CC(=O)O)CC3)C(=O)N3C[C@H](O)C[C@H]3C(=O)N[C@@H](CC(C)C)C(=O)N[C@@H](C(C)C)C(=O)N[C@@H](CC(N)=O)C(=O)N3CCC[C@H]3C(=O)N[C@@H](CC(C)C)C(=O)N2)C(=O)CCSC[C@@H](C(N)=O)NC(=O)[C@H](CCCCNC(=N)N)NC(=O)[C@H](Cc2c[nH]c3ccccc23)NC(=O)[C@@H](CC(=O)O)NC(=O)[C@@H]2CCCN2C(=O)[C@H](Cc2c[nH]cn2)NC1=O [[^68Ga]AJ201, metal not drawn] ({NOTA-PEG2}-GR[Sar][Sar][Sar]GA[hArg]DC[Hyp]LVNPLCLHP[dD]W[hArg]C-NH2; linker 10-17-24 via TATA)",tissue uptake at 1 h,"[1]; 50 uCi, read-out: Bladder uptake",74.9 ± 15.3 %ID/g
same,tissue uptake at 1 h,"[1]; 50 uCi, read-out: Femur uptake",0.71 ± 0.22 %ID/g
same,tissue uptake at 1 h,"[1]; 50 uCi, read-out: Heart uptake",0.3 ± 0.06 %ID/g
same,tissue uptake at 1 h,"[1]; 50 uCi, read-out: Kidney uptake",50.3 ± 9.75 %ID/g
same,tissue uptake at 1 h,"[1]; 50 uCi, read-out: Liver uptake",2.46 ± 0.77 %ID/g
same,tissue uptake at 1 h,"[1]; 50 uCi, read-out: Lung uptake",0.78 ± 0.13 %ID/g
same,tissue uptake at 1 h,"[1]; 50 uCi, read-out: Muscle uptake",0.28 ± 0.08 %ID/g
same,tissue uptake at 1 h,"[1]; 50 uCi, read-out: Pancreas uptake",0.22 ± 0.04 %ID/g
same,tissue uptake at 1 h,"[1]; 50 uCi, read-out: Small intestine uptake",0.62 ± 0.25 %ID/g
same,tissue uptake at 1 h,"[1]; 50 uCi, read-out: Stomach uptake",0.95 ± 0.26 %ID/g
same,tissue uptake at 1 h,"[1]; 50 uCi, read-out: Tumor uptake",1.51 ± 0.28 %ID/g
same,tissue to tissue ratio at 1 h,"[1]; 50 uCi, read-out: Tumor/Muscle ratio",6 ± 0.77
same,tissue to tissue ratio at 1 h,"[1]; 50 uCi, read-out: Tumor/Pancreas ratio",6.67 ± 2.18
same,tissue to tissue ratio at 1 h,"[1]; 50 uCi, read-out: Tumor/blood ratio",2.17 ± 0.46
same,tissue uptake at 1 h,[1]; read-out: Blood uptake,0.75 ± 0.15 %ID/g
same,tissue uptake at 1 h,[1]; read-out: Large Intestine uptake,0.61 ± 0.28 %ID/g
same,tissue uptake at 1 h,[1]; read-out: Spleen uptake,0.71 ± 0.3 %ID/g
same,Brain uptake,[2],0.04 ± 0.01 %ID/g
same,Stability in human serum (radio-HPLC finding),"[3]; 37 °C, 1, 2 and 3 h, ~1.5 mCi in 0.5 mL",stable without noticeable degradation or impurity formation
same,Time of stability in human serum,[3]; 37 °C,at least 3 h
same,SUV,[4],1.31 ± 0.11 SUV
same,Cell binding (percent incubated activity),[5],0.8 ± 0.1 %IA
same,Cell binding (percent incubated activity),[6],4.7 ± 0.1 %IA
same,Cell binding (percent incubated activity),[7],7.2 ± 0.6 %IA
same,Cell binding (percent incubated activity),[8],5.9 ± 0.2 %IA
same,Cell binding (percent incubated activity),[9],9.9 ± 1.2 %IA
same,Cell binding (percent incubated activity),[10],22.0 ± 1.1 %IA
same,Time to uptake stabilization in Panc1 cells,"[11]; 4 °C, time points 5, 15, 30, 60 min",around 30 min
same,Time to uptake equilibrium in Panc1 cells,"[11]; 37 °C, time points 5, 15, 30, 60 min",≤ 15 min
same,Reduction of binding to Panc1 cells by blocking,"[11]; in the presence of non-radioactive AJ201 (2 µM), P<0.0001",more than 95%
same,Cell binding (percent incubated activity),[12],1.7 ± 0.3 %IA
same,"Organ dose, Adrenals",[13]; [14],0.06 rem/mCi
same,"Organ dose, Bladder",[13]; [14],0.15 rem/mCi
same,"Organ dose, Brain",[13]; [14],0.003215 rem/mCi
same,"Organ dose, Femur",[13]; [14],0.01421 rem/mCi
same,"Organ dose, Heart",[13]; [14],0.03275 rem/mCi
same,"Organ dose, Kidney",[13]; [14],0.38 rem/mCi
same,"Organ dose, Large Intestine",[13]; [14],0.01839 rem/mCi
same,"Organ dose, Liver",[13]; [14],0.02398 rem/mCi
same,"Organ dose, Lung",[13]; [14],0.04 rem/mCi
same,"Organ dose, Muscle",[13]; [14],0.00962 rem/mCi
same,"Organ dose, Pancreas",[13]; [14],0.02708 rem/mCi
same,"Organ dose, Small intestine",[13]; [14],0.01639 rem/mCi
same,"Organ dose, Spleen",[13]; [14],0.03644 rem/mCi
same,"Organ dose, Stomach with contents",[13]; [14],0.0158 rem/mCi
same,"Organ dose, Thymus",[13]; [14],0.02016 rem/mCi
same,"Organ dose, Adrenals",[13]; [15],0.06253 rem/mCi
same,"Organ dose, Bladder",[13]; [15],0.1513 rem/mCi
same,"Organ dose, Kidney",[13]; [15],0.3885 rem/mCi
same,"Organ dose, Lung",[13]; [15],0.04292 rem/mCi
same,Estimated effective dose equivalent,"[13]; at 13 mCi dose, human estimate",less than 5 rem
same,Dose that can be safely administered for PET imaging,[13]; human estimate,13 mCi
same,"Residence time (TIAC), Adrenals",[13]; [16],0.0002761 h
same,"Residence time (TIAC), Bladder",[13]; [16],0.006394 h
same,"Residence time (TIAC), Blood",[13]; [16],0.05152 h
same,"Residence time (TIAC), Brain",[13]; [16],0.0008446 h
same,"Residence time (TIAC), Femur",[13]; [16],0.005607 h
same,"Residence time (TIAC), Heart",[13]; [16],0.001764 h
same,"Residence time (TIAC), Kidney",[13]; [16],0.08395 h
same,"Residence time (TIAC), Large Intestine",[13]; [16],0.001341 h
same,"Residence time (TIAC), Liver",[13]; [16],0.01723 h
same,"Residence time (TIAC), Lung",[13]; [16],0.01099 h
same,"Residence time (TIAC), Muscle",[13]; [16],0.07064 h
same,"Residence time (TIAC), Pancreas",[13]; [16],0.0006321 h
same,"Residence time (TIAC), Small intestine",[13]; [16],0.003647 h
same,"Residence time (TIAC), Spleen",[13]; [16],0.002451 h
same,"Residence time (TIAC), Stomach with contents",[13]; [16],0.0004823 h
same,"Residence time (TIAC), Thymus",[13]; [16],0.0002384 h
